In the CombiSolv-Exp solvation set (Vermeire and Green 2021):

Assay: solvent given as SMILES

CCc1ccc2ccccc2c1
Settings	solvation free energy, 298 K [kcal/mol]
in O	-2.26

CNC1CCCCC1
Settings	solvation free energy, 298 K [kcal/mol]
in C1CCCCC1	-6.05

CCCCCCCCCCOC(=O)c1ccccc1C(=O)OCCCCC
Settings	solvation free energy, 298 K [kcal/mol]
in O	-6.49

CCO
Settings	solvation free energy, 298 K [kcal/mol]
in Brc1ccccc1	-3.13
in C1CCCCC1	-2.32
in C1CCOC1	-4.51
in C1COCCO1	-4.36
in C=CCCCCCCC	-2.34
in CC1COC(=O)O1	-4.2
in CC#N	-4.38
in CC(=O)N(C)C	-5.24
in CC(=O)O	-5.22
in CC(=O)c1ccccc1	-4.04
in CC(C)(C)O	-5.05
in CC(C)=O	-4.54
in CC(C)CC(C)(C)C	-2.36
in CC(C)CCCC(C)CCCC(C)CCCCC(C)CCCC(C)CCCC(C)C	-2.01
in CC(C)CCO	-4.8
in CC(C)CO	-4.79
in CC(C)O	-4.94
in CC(C)OC(C)C	-3.77
in CC(Cl)Cl	-3.56
in CCC(C)=O	-4.36
in CCCC#N	-4.1
in CCCCC(CC)COC(=O)CCCCC(=O)OCC(CC)CCCC	-3.37
in CCCCCCC	-2.2
in CCCCCCCC	-2.14
in CCCCCCCCC=CCCCCCCCC(=O)OCC(COC(=O)CCCCCCCC=CCCCCCCCC)OC(=O)CCCCCCCC=CCCCCCCCC	-3.22
in CCCCCCCCCC	-2.25
in CCCCCCCCCCCCCCCC	-1.97
in CCCCCCCCCCO	-4.1
in CCCCCCCCCOC(=O)c1ccccc1C(=O)OCCCCCCCCC	-3.26
in CCCCCCCCO	-4.43
in CCCCCO	-4.65
in CCCCCl	-3.07
in CCCCN(C=O)CCCC	-4.53
in CCCCO	-4.9
in CCCCOCCCC	-3.32
in CCCO	-4.91
in CCCOCCC	-3.45
in CCN(CC)C(C)=O	-5.06
in CCN(CC)CC	-4.02
in CCNC(C)=O	-4.95
in CCNC=O	-4.9
in CCOC(=O)c1ccccc1C(=O)OCC	-3.54
in CCOC(C)=O	-4.13
in CCOCC	-4.42
in CCOCCO	-4.56
in CCOCCOCCOCC	-4.21
in CCOP(=O)(OCC)OCC	-4.76
in CCOc1ccccc1	-3.36
in CN1CCCC1=O	-5.09
in CN1CCCCC1=O	-5.13
in CN1CCN(C)C1=O	-4.92
in CN(C)C=O	-5.1
in CN(C)P(=O)(N(C)C)N(C)C	-6.13
in CNC(C)=O	-4.98
in CNC=O	-4.96
in CO	-5.28
in COC(C)(C)C	-3.94
in COC(C)=O	-4.11
in COCCO	-4.79
in COP(=O)(OC)OC	-4.98
in COc1ccccc1	-3.52
in CS(C)=O	-5.24
in Cc1ccc(C)cc1	-3.12
in Cc1cccc(C)c1	-3
in Cc1cccc(C)n1	-4.87
in Cc1cccc(O)c1	-5.53
in Cc1ccccc1	-3.22
in Cc1ccccn1	-4.97
in ClC(Cl)(Cl)Cl	-2.97
in ClC(Cl)Cl	-3.96
in ClCCl	-3.75
in Clc1ccccc1	-3.18
in FC(F)(F)C(F)(F)C(F)(F)C(F)(F)C(F)(F)C(F)(F)F	-1.55
in Fc1c(F)c(F)c(F)c(F)c1F	-2.79
in Fc1ccccc1	-3.32
in ICI	-2.83
in Ic1ccccc1	-3.04
in NC=O	-4.84
in Nc1ccccc1	-4.38
in O	-5.01
in O=C1CCCCC1	-4.34
in O=C1CCCO1	-4.44
in O=CN1CCOCC1	-4.53
in OCC(O)CO	-4.32
in OCCO	-4.71
in OCCOCCO	-4.56
in OCCOCCOCCO	-4.17
in OCc1ccccc1	-4.79
in S=C=S	-2.71
in [2H]O[2H]	-5.08
in c1ccc2ncccc2c1	-4.53
in c1ccc(COCc2ccccc2)cc1	-3.38
in c1ccccc1	-3.28
in c1ccncc1	-5.05

c1c[nH]cn1
Settings	solvation free energy, 298 K [kcal/mol]
in O	-9.63

CCC(=O)OC
Settings	solvation free energy, 298 K [kcal/mol]
in C1CCOC1	-4.45
in CCCCCC	-3.65
in CCCCCCC	-3.63
in CCCCCCCC	-3.57
in CCCCCCCCCC	-3.49
in CCCO	-3.89
in CCO	-4.15
in CO	-4.32
in O	-2.93

CC(C)C1=CC2=CCC3C(C)(C)CCCC3(C)C2CC1 (stereo not given)
Settings	solvation free energy, 298 K [kcal/mol]
in O	-0.08

Nc1ccc(C(=O)O)cc1
Settings	solvation free energy, 298 K [kcal/mol]
in C1COCCO1	-14.6
in CC(C)CCO	-13.7
in CC(C)CO	-13.8
in CC(C)O	-14.2
in CCC(C)O	-14
in CCCC(C)O	-13.9
in CCCCCCCCCCO	-13.3
in CCCCCCCCO	-13.5
in CCCCCCCO	-13.7
in CCCCCCO	-13.8
in CCCCCO	-13.9
in CCCCO	-14.1
in CCCO	-14.3
in CCO	-14.6
in CCOCC	-13.6

CC(C)(C)c1ccc(O)cc1
Settings	solvation free energy, 298 K [kcal/mol]
in CCCCCC	-7.63
in O	-5.91

CC(C)Cc1cnccn1
Settings	solvation free energy, 298 K [kcal/mol]
in O	-5.04

CC(C)CC(=O)O
Settings	solvation free energy, 298 K [kcal/mol]
in O	-6.09

c1ccc(-c2ccccc2)cc1
Settings	solvation free energy, 298 K [kcal/mol]
in C1COCCO1	-9.29
in CC(C)(C)O	-8.06
in CC(C)CC(C)(C)C	-8.32
in CC(C)CC(C)O	-8.13
in CC(C)CCO	-8.16
in CC(C)CO	-8.03
in CC(C)O	-8.09
in CC(C)OCCO	-8.73
in CCC(C)(C)O	-8.3
in CCC(C)O	-8.19
in CCCC(C)CO	-8.24
in CCCC(C)O	-8.25
in CCCCC(CC)CO	-8.27
in CCCCCC	-8.53
in CCCCCCC	-8.54
in CCCCCCCC	-8.53
in CCCCCCCCC=CCCCCCCCC(=O)OCC(COC(=O)CCCCCCCC=CCCCCCCCC)OC(=O)CCCCCCCC=CCCCCCCCC	-8.8
in CCCCCCCCCC	-8.49
in CCCCCCCCO	-8.39
in CCCCCCCO	-8.36
in CCCCCCO	-8.34
in CCCCCO	-8.34
in CCCCOCCCC	-8.85
in CCCCOCCO	-8.65
in CCCO	-8.25
in CCCOCCO	-8.76
in CCO	-8.23
in CCOCC	-8.59
in CCOCCO	-8.74
in CN(C)C=O	-9.33
in CO	-7.88
in COC(C)(C)C	-9.04
in COC(C)CCO	-8.68
in ClC(Cl)(Cl)Cl	-9.22
in ClCCCl	-9.34
in ClCCl	-9.4
in Clc1ccccc1	-9.26
in O	-2.66

Clc1cc2c(cc1Cl)Oc1c(Cl)c(Cl)c(Cl)c(Cl)c1O2
Settings	solvation free energy, 298 K [kcal/mol]
in O	-3.71

Clc1cccc(Cl)c1Cl
Settings	solvation free energy, 298 K [kcal/mol]
in CCCCCC	-6.92
in CCCCCCCCC=CCCCCCCCC(=O)OCC(COC(=O)CCCCCCCC=CCCCCCCCC)OC(=O)CCCCCCCC=CCCCCCCCC	-7.12
in CCCCCCCCO	-7.08
in O	-1.24
